The values below come from US20260207554A1 (priority 2022, published 2026).

Counter-ions that a name gives are not always drawn.

The data set deals with adult nondependent recreational opioid users. The note with it: in vivo.

As to `COc1ccc2c3c1O[C@H]1C(=O)CC[C@@]4(O)[C@@H](C2)N(C)CC[C@]314.Cl` [Oxycodone HCl], under “human”, the “Skin and subcutaneous tissue disorders, subjects with TEAE n (%)” value is reported as “(29.5%)”. Also, under “human, po”, the “Abdominal pain upper, subjects with TEAE n (%)” value is given as 0%; the “Dizziness, subjects with TEAE n (%)” value is “(9.1%)”; the “Gastrointestinal disorders, subjects with TEAE n (%)” value is recorded as “(27.3%)”; the “Generalised tonic-clonic seizure, subjects with TEAE n (%)” value came to 0%. Under “human, po”, the “Headache, subjects with TEAE n (%)” value is given as “(4.5%)”; the “Hiccups, subjects with TEAE n (%)” value is “(6.8%)”; the “Nervous system disorders, subjects with TEAE n (%)” value was “(22.7%)”; the “Number of subjects with at least one TEAE, n (%)” value is given as “(56.8%)”. In addition, where the note is “human, po”, the “Somnolence, subjects with TEAE n (%)” value is on record as “(9.1%)”; the “Tension headache, subjects with TEAE n (%)” value worked out at 0%; the “Toothache, subjects with TEAE n (%)” value came out at 0%; the “Tremor, subjects with TEAE n (%)” value is 0%. For the setting “human, po”, the “Uvulitis, subjects with TEAE n (%)” value is listed as 0%; the “Vertigo, subjects with TEAE n (%)” value is 0%; the “Vomiting, subjects with TEAE n (%)” value is on record as “(15.9%)”; the “feeling hot, incidence of subjects” value was found to be 2.3%. The “hot flush, incidence of subjects” value (human, po) stood at 11.4%.
Turning to `COc1cccc(C2(O)CCCCC2CN(C)C)c1` (centres unmarked) [Tramadol HCl], the “Skin and subcutaneous tissue disorders, subjects with TEAE n (%)” value (human) is “(25.6%)”. Also, where the note is “human, po”, the “Abdominal pain upper, subjects with TEAE n (%)” value is 0%; the “Dizziness, subjects with TEAE n (%)” value is recorded as “(2.6%)”; the “Gastrointestinal disorders, subjects with TEAE n (%)” value is listed as “(35.9%)”; the “Generalised tonic-clonic seizure, subjects with TEAE n (%)” value is listed as “(5.1%)”. Besides, under “human, po”, the “Headache, subjects with TEAE n (%)” value is on record as “(7.7%)”; the “Hiccups, subjects with TEAE n (%)” value is recorded as “(2.6%)”; the “Number of subjects with at least one TEAE, n (%)” value is recorded as “(66.7%)”; the “Somnolence, subjects with TEAE n (%)” value was “(7.7%)”. Further, under “human, po”, the “Tension headache, subjects with TEAE n (%)” value is given as 0%; the “Toothache, subjects with TEAE n (%)” value worked out at 0%; the “Tremor, subjects with TEAE n (%)” value is 0%; the “Uvulitis, subjects with TEAE n (%)” value was “(2.6%)”. Moreover, for the setting “human, po”, the “Vertigo, subjects with TEAE n (%)” value is reported as “(2.6%)”; the “feeling hot, incidence of subjects” value is recorded as 2.5%; the “hot flush, incidence of subjects” value turned out to be 12.8%. Moreover, the “subjects who experienced seizures” value (po) is “two subjects experienced seizures”.
